Test results reported in US11026943B2, “Aminoquinoline derivatives and uses thereof” (UNIVERSITY OF DELHI, priority 2012, dated 2021).

Experiments:
[1] = tested on: LBDs of Nur77, GR, LXR, RXR, PPARα, PPARγ; test: Target selectivity: GAL4-LBD reporter assays of other nuclear receptors; format: cell-based; settings: FIG. 19; 30 μM AQ
Experimental: The positive reactivity of these NR constructs was confirmed by the known activators (2 nM dexamethasone, 20 nM retinoic acid, 2 μM GW3965, 50 nM GW7647, and 5 nM GW1929 for GR, RXR, LXR, PPARα, and PPARγ, respectively). The basal level of transcriptional activity was normalized to 1. Bars represent means±SEM from three independent experiments.
Human neuroblastoma SK-N-BE(2)C cells were maintained in Dulbecco's modified Eagle's medium (DMEM) supplemented with 10% fetal bovine serum. All culture media contained 100 units/ml penicillin and 100 μg/ml streptomycin. For transfection, cells were plated at 1.5×10^5 cells/well in the DMEM media without antibiotic into 24-well plates 1 day prior to transfection. Transfections were carried out by the Lipofectamine plus (Invitrogen) according to the manufacture's protocol. Total DNA amount was 0.5 μg per well with 0.1 μg of pRSV-β-gal as an internal control. 6 hours after transfection, compounds in the DMEM media with 1% charcoal-stripped fetal calf serum was added and incubated overnight. […] Then equal volume of firefly luciferase substrate was added and the luciferase activity was measured using a Luminometer plate reader and normalized for beta-galactosidase activity.

Nurr1 DBD = biological target: T1, Nurr1 DBD (Mus musculus, UniProt Q06219); test: GAL4 / GAL4-Nurr1 DBD reporter assay; format: cell-based
T1 construct: the yeast transcription factor GAL4's DBD is fused to either Nurr1 LBD or DBD; expressed in transfected cells; host or cells: SK-N-BE(2)C human neuroblastoma cells

[2] = biological target: T2, Nurr1 interaction with SRC-1 and SRC-3 (Mus musculus, UniProt Q06219); test: Co-immunoprecipitation of Nurr1 with SRC-1/SRC-3 in SK-N-BE(2)C cells; format: cell-based; settings: 30 μM AQ or 100 μM CQ for 16 hours
T2 construct: the C-terminal myc-tagged full-length Nurr1; His (from vector pCDNA3.1/myc-His) (C); expressed in transfected cells; host or cells: SK-N-BE(2)C human neuroblastoma cells

[3] = tested on: murine microglial BV-2 cells; format: cell-based, mouse; settings: 10 ng/ml LPS for 4 hrs, AQ 10 and 15 μM
Experimental: To prepare primary cultures of DA neurons, the ventral mesencephalon was removed from 14 day gestation Sprague Dawley rat embryo (Charles River, Cambridge, Mass.). Tissues were incubated with 0.01% trypsin in MEM (MEM, Invitrogen) for 10 min at 37° C. and triturated using a constricted Pasteur pipette. DA neurons were plated at 1.0×10^5 cells per 9 mm diameter glass cover slip precoated with 100 μg/ml poly-D-lysine (Sigma, St. Louis, Mo.) and 4 μg/ml laminin (Invitrogen). DA neurons were maintained at 37° C. in a humidified 5% CO2 atmosphere in minimum essential medium supplemented with 10% FBS (Hyclone), 2 mM glutamine and 6.0 g/l glucose. At 5 or 6 days in vitro, DA neurons were washed with MEM and treated with various experimental reagents for the time periods indicated. Reagents used were 6-OHDA (Sigma), N-acetyl-cysteine, N-benzyloxycarbonyl-Val-Ala-Asp-fluoromethylketone (Z-VAD-fink; Enzyme Systems Products, Livermore, Calif.). BV-2 cells, a microglial-like mouse cell line, were thawed and passaged until logarithmic growth was achieved. Cell cultures were maintained in 6-well culture plate (Corning Costar, Corning, N.Y.) at a concentration of 1.0×10^5 cells per well, in the growth medium consisting of DMEM (Sigma, St. Louis, Mo.), supplemented with 10% fetal bovine serum (FBS; Hyclone) heat inactivated at 56° C. for 30 min, 2 mM L-glutamine(Sigma) and 1× Pen-Strep (Invitrogen). […]

Nurr1 LBD [4] = biological target: T3, Nurr1 LBD (Mus musculus, UniProt Q06219); test: Fluorescence quenching assay, Nurr1-LBD; format: binding; settings: increasing amounts of AQ, 0.1 nM-1 μM
Experimental: Fluorescence spectra were measured using a SHIMADZU fluorescence spectrophotometer (model RF-5310PC, SHIMADZU). The proteins (15 ng/μl) were incubated with different concentrations of AQ or kanamycin (0.1 nM, 1 nM, 10 nM, 100 nM and 1 μM in PBS buffer, pH7.0). Protein quenching was monitored at 25° C. by using 5 nm of excitation and 5 nm of emission slit-width. The excitation wavelength was 280 nm, and the emission spectra were measured between 290 and 430 nm.

Nurr1 LBD [5] = biological target: T3, Nurr1 LBD; test: Filter binding assay with [3H]-CQ (saturation and competition); settings: 500 nM [3H]-CQ
Description: The basal level of transcriptional activity was normalized to 1. The bars represent means±SEM from three independent experiments. (FIG. 13C) Effect of Nurr1 specific siRNA on Nurr1 LBD's transactivation activity. […] (FIG. 13D) Human neuroblastoma SK-N-BE(2)C cells were transfected with the N-terminal flag-tagged SRC1 or SRC3 and the C-terminal myc-tagged full-length Nurr1. […] Cell lysates were immunoprecipitated (IP) using anti-flag antibodies and analyzed by immunoblotting (IB) using anti-myc antibodies. […] The fold induction was derived by comparing each luciferase activity to basal level obtained by non-SRC transfection. […] The concentrations (04) are shown next to the arrows. […] Specific binding was calculated as the difference of total and non-specific binding. The insert indicates Scatchard analysis of the specific binding. […] The data represent the average of triplicate from three independent experiments. All graphs, Kd, Ki, and Bmax values were generated using the non-linear regression program Prism version 5.02.
GF/C filters were wet with in binding buffer and placed on a 48-place filter manifold. […] Filters were washed with 4×100 ml binding buffer, dried, and mixed with 5 ml Scintiverse BD (Fisher) and radioactivity was determined in a Beckman LS6000SC liquid scintillation counter. […] The mixture was applied to GF/C filter and filter was washed and counted as described above.

Nurr1 LBD [6] = biological target: T3, Nurr1 LBD; test: Nurr1 LBD GAL4 reporter assay (pSVGAL(DBD)-N(LBD), p8xGAL-Luc) in SK-N-BE(2)C cells; format: cell-based; settings: read-out: EC50 Nurr1 LBD-based reporter activity
Description: The pTH2600LUC reporter construct contains the 2.6 kb upstream sequences of the rat tyrosine hydroxylase gene in front of a firefly luciferase gene in pGL3-basic vector. A Nurr1-expression plasmid, pSV40Nurr1, was kindly provided by Dr Orla M. Conneely at Baylor College of Medicine (Houston, Tex., USA). […] The VP16/SRC1 and VP16/SRC3 hybrid were constructed by inserting the transactivation domain of the VP16 protein upstream of SRC1 and SRC3, respectively. […] The recombinant proteins were purified by Ni-NTA column chromatography (Qiagen) according to the manufacturer's instruction. The integrity of all sequences was verified by DNA sequence analyses.
Human neuroblastoma SK-N-BE(2)C cells were maintained in Dulbecco's modified Eagle's medium (DMEM) supplemented with 10% fetal bovine serum. All culture media contained 100 units/ml penicillin and 100 μg/ml streptomycin. For transfection, cells were plated at 1.5×10^5 cells/well in the DMEM media without antibiotic into 24-well plates 1 day prior to transfection. Transfections were carried out by the Lipofectamine plus (Invitrogen) according to the manufacture's protocol. Total DNA amount was 0.5 μg per well with 0.1 μg of pRSV-β-gal as an internal control. 6 hours after transfection, compounds in the DMEM media with 1% charcoal-stripped fetal calf serum was added and incubated overnight. Cells from each well were lysed with 100 μl of lysis buffer, which contains 25 mM Tris-phosphate (pH 7.8), 2 mM DTT, 2 mM CDTA (1,2-diaminocyclohexane-N,N,N′,N′-tetraacetic acid), 10% glycerol, and 1% Triton X-100. Then equal volume of firefly luciferase substrate was added and the luciferase activity was measured using a Luminometer plate reader and normalized for beta-galactosidase activity.

[7] = tested on: primary cultures of rat mesencephalic DA neurons; test: 6-OHDA-induced death in primary mesencephalic DA neurons (TH+ count, [3H]DA uptake); format: cell-based; settings: number of TH+ neurons and DA uptake; 20 μM 6-OHDA for 24 hr
Experimental: Control DA neurons were treated with the above medium in the presence of a dopamine uptake blocker, 10 μM mazindol (Sigma). Cells were then washed with ice-cold Krebs Ringers solution and lysed with 0.5 M NaOH. Radioactivity was quantified by a liquid scintillation counter (Beckman, Fullerton, Calif.).
To prepare primary cultures of DA neurons, the ventral mesencephalon was removed from 14 day gestation Sprague Dawley rat embryo (Charles River, Cambridge, Mass.). Tissues were incubated with 0.01% trypsin in MEM (MEM, Invitrogen) for 10 min at 37° C. and triturated using a constricted Pasteur pipette. DA neurons were plated at 1.0×10^5 cells per 9 mm diameter glass cover slip precoated with 100 μg/ml poly-D-lysine (Sigma, St. Louis, Mo.) and 4 μg/ml laminin (Invitrogen). DA neurons were maintained at 37° C. in a humidified 5% CO2 atmosphere in minimum essential medium supplemented with 10% FBS (Hyclone), 2 mM glutamine and 6.0 g/l glucose. […]
Cells were fixed in 4% paraformaldehyde (PFA) for 20 min, washed and then incubated with blocking buffer [PBS, 10% goat serum (Invitrogen), 0.3% Triton X-100 (Sigma)] for 1 hour. […] Following washes with PBS, appropriate fluorescence-tagged secondary antibodies (Jackson Immunoresearch Laboratories, West Grove, Pa.) were used for visualization. […]

T3 sequence (Q06219 328-598): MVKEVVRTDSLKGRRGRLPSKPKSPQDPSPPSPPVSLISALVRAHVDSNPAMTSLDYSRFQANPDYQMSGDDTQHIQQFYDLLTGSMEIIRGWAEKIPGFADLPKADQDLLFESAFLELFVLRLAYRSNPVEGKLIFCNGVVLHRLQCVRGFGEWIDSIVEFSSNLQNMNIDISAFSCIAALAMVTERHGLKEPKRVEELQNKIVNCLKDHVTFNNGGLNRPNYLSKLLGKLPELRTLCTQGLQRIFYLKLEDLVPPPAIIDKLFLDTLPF
T2 sequence (Q06219 whole entry): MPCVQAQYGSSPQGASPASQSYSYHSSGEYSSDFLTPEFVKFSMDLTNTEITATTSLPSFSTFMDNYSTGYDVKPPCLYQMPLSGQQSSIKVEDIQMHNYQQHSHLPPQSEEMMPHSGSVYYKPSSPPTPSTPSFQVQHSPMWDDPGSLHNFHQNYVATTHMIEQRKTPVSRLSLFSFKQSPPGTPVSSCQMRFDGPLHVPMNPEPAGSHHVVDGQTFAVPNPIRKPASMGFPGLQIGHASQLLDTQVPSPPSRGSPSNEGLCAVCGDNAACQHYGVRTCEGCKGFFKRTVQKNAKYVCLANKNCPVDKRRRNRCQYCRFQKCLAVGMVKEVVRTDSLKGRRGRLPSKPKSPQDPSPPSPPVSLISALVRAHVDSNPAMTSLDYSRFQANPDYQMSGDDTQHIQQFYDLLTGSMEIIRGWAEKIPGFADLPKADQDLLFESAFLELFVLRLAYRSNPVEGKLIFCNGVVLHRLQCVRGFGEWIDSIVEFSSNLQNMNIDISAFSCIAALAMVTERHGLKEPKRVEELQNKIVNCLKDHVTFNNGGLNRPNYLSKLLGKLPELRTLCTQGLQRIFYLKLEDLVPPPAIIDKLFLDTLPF
T1 sequence (Q06219 260-335 limits assumed): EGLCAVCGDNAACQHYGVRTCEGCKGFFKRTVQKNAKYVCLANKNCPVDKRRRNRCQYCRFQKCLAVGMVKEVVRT

CCN(CC)Cc1cc(Nc2ccnc3cc(Cl)ccc23)ccc1O [AQ, amodiaquine]
transcriptional activity of other nuclear receptors [1]: unable to induce | response with GAL4 or GAL4-Nurr1 DBD (Nurr1 DBD): no response | Nurr1 interactions with SRC-1 and SRC-3 [2]: significantly enhanced | LPS-induced expression of pro-inflammatory cytokines [3]: suppresses | fluorescence quenching of Nurr1-LBD (Nurr1 LBD [4]): fluorescence intensity gradually decreased | Ki (Nurr1 LBD [5]): 0.246 µM | EC50 (Nurr1 LBD [6]): ~20 µM | 6-OHDA-induced death in primary DA neurons [7]: significantly inhibit
